Experiments:
XBP1 mRNA splicing = assay: endogenous XBP1 mRNA splicing by RT-PCR in ER-stressed RPMI8226 cells; assay type: cell-based, human
Experimental: FIG. 1B is a gel electrophoresis image showing STF-083010 inhibiting endogenous XBP1 mRNA splicing. RPMI8226 cells were treated with 300 μM thapsigargin (Th), 60 μM STF-083010 or both for indicated amount of time and the relative XBP1 splicing was determined by RT-PCR. Solid arrow indicates the unspliced and broken arrow indicates the spliced form.
(§1) To confirm the molecular target, we analyzed the effect of STF-083010 on endogenous XBP1 mRNA splicing levels in control and ER-stressed RPMI8226 human MM cells (FIG. 1B). […] To establish that this effect was due to a direct interaction between STF-083010 and Ire1α, we analyzed Ire1α enzymatic activity in a cell free system. STF-083010 blocked Ire1α's endonuclease activity (FIG. 1E), without affecting its kinase activity (FIG. 1F).
(§2) Human specimen isolation and assays. Bone marrow aspirates were obtained from MM patients after obtaining informed consent according to institutional guidelines. CD138+ plasma cells were selected by positive magnetic bead selection (StemCell Technologies, Vancouver, Canada) either after isolation of nucleated cells (patients 1-4) or directly (patients 5-8). Peripheral blood cells were obtained by Ficoll-Hypaque density centrifugation from separate control patients. Cell culture, reporter assays, RT-PCR, Western blotting, and bioluminescent imaging.

Ire1α = target: T1, Ire1α (Homo sapiens, UniProt O75460); assay: Ire1α auto-phosphorylation by immunoblot in RPMI8226 cells; assay type: cell-based; details: 300 μM Th and 60 μM STF-083010
T1 construct: RPMI8226 cells were treated with 300 μM Th and 60 μM STF-083010; endogenous in cells; host or cells: RPMI8226 human multiple myeloma cells
Experimental: FIG. 1D is a set of gel electrophoresis images in which RPMI8226 cells were treated with 300 μM Th and 60 μM STF-083010 for the indicated times and the levels of phosphorylated and total Ire1α were detected using specific antibodies.

XBP1-luciferase reporter = assay: XBP1-luciferase bioluminescence in transgenic XBP1-luc mice; assay type: in vivo; details: i.p.
Experimental: FIG. 2A is a bar graph showing that STF-083010 blocks bortezomib-induced XBP1 activity in vivo. Transgenic XBP1-luc mice were injected i.p. with drug vehicle (16% chremophor), 1 mg/kg bortezomib, or 1 mg/kg bortezomib and 60 mg/kg STF-083010 and bioluminescence was measured after 24 h. […] Error bars show s.e.m. of at least 4 animals.
FIG. 2B is a set of images of representative mice before and after treatment.
as §2

sXBP1 protein = sXBP1 protein production by immunoblotting in MM cell lines; assay type: cell-based, human; details: 300 μM Th and 60 μM STF-083010
Experimental: FIG. 1C is set of a gel electrophoresis images showing STF-083010 inhibiting the production of sXBP1 protein but not the auto-phosphorylation of Ire1α. The left panel indicates MM cell lines that were treated for the indicated times with 300 μM Th and 60 μM STF-083010 and sXBP1 protein was detected by immunoblotting.
as §1, §2

hIre1α [1] = target: T2, hIre1α (Homo sapiens, UniProt O75460); assay: cell free Ire1α kinase activity (autophosphorylation, 32P-γATP); assay type: biochemical; details: 0-100 μM, 32P-γATP autophosphorylation
T2 construct: hIre1α protein containing both Ire1 cytoplasmic kinase and RNase domains; made in house
Experimental: FIG. 1F is a graph and gel that show the effect of STF-083010 on cell free Ire1α kinase activity, Upper: hIre1α was incubated with 32P-γATP and increasing concentrations (0-100 μM) of STF-083010. Ire1α autophosphorylation was analyzed by SDS-PAGE, followed by autoradiography to determine the amount of 32P incorporation (32P-hIRE). […] Error bars represent s.e.m. of 3 independent experiments.
Chemical library screening. The screen was performed in the Stanford High-Throughput Bioscience Center (HTBC). hIre1α protein containing both Ire1 cytoplasmic kinase and RNase domains was expressed and purified from baculovirus as described (Niwa M, Sidrauski C, Kaufman R J, Walter P. A role for presenilin-1 in nuclear accumulation of Ire1 fragments and induction of the mammalian unfolded protein response. Cell. 1999; 99:691-702). Autophosphorylation activity was determined with the addition of ^32P-γATP. Endonuclease activity was determined with the addition of radio-labeled HAC1 508 nt RNA substrate synthesized in vitro using α^32P-UTP (Nock S, Gonzalez T, Sidrauski C, Niwa M, Walter P. Purification and activity assays of the catalytic domains of the kinase/endoribonuclease Ire1p from Saccharomyces cerevisiae. Methods Enzymol. 2001; 342:3-10). […] Kinase activity and RNAse cleavage products were quantitated by PAGE and ^32P-γATP or ^32P-UTP autoradiography respectively.

[2] = test system: RPMI8226, MM.1S and MM.1R MM cells; assay: in vitro cytotoxicity in MM cell lines, trypan blue exclusion; assay type: cell-based, human; details: 0, 30 or 60 μM, viable cell number measured daily
Experimental: FIG. 2C is a set of line graphs showing in vitro cytotoxicity of STF-083010. RPMI8226, MM.1S and MM.1R MM cells that were treated with 0, 30 or 60 μM of STF-083010 and viable cell number was measured daily by the trypan blue exclusion method.
(§3) In order to determine anti-myeloma activity of STF-083010, first we treated a panel of MM cell lines with increasing concentrations of the compound in vitro and measured viability by trypan blue exclusion (FIG. 2C). […] Next, we treated RPMI8226 human MM cells grown as tumor xenografts in NSG mice. […] Additionally, we treated fresh CD138+ cells isolated from MM patients and compared the ex vivo toxicity to that of cells from 7 control patients (FIG. 2E, Tables 1,2).

RPMI8226 MM cells = assay: RPMI8226 subcutaneous tumor xenografts in NOD/SCID/IL2Rγ null mice; assay type: in vivo; details: intraperitoneal, 30 mg/kg once weekly for 2 weeks (d1, d8)
Experimental: FIG. 2D is a line graph showing the antitumor activity of STF-083010 in vivo. RPMI8226 MM cells were established as subcutaneous tumor xenografts in NOD/SCID/IL2Rγ null mice. When tumors reached an average volume of 150 mm3, 2 groups of 5 mice each were treated with 30 mg/kg STF-083010 or drug vehicle once weekly for 2 weeks.
as §3

[3] = test system: CD138+ multiple myeloma cells; assay: ex vivo cytotoxicity in CD138+ cells from MM patients (Annexin V/Propidium Iodide); assay type: cell-based, human
From the text: MM cells were obtained by CD138+ selection from bone marrow samples from MM patients; lymphocytes were obtained by Ficoll density-gradient centrifugation of peripheral blood samples from control patients, followed by staining with anti CD3, anti CD19 and anti CD56 monoclonal antibodies to differentiate between T-, B- and NK cells.
Next, we treated RPMI8226 human MM cells grown as tumor xenografts in NSG mice. […] Additionally, we treated fresh CD138+ cells isolated from MM patients and compared the ex vivo toxicity to that of cells from 7 control patients (FIG. 2E, Tables 1,2).
as §2

CD56 positive NK cells = assay: ex vivo cytotoxicity in peripheral blood NK cells (7-aminoactinomycin D); assay type: cell-based, human; details: average of UPN 9-15
Experimental: (§4) FIG. 2E is a line graph showing that STF-083010 is preferentially cytotoxic against human MM cells. MM cells were obtained by CD138+ selection from bone marrow samples from MM patients; lymphocytes were obtained by Ficoll density-gradient centrifugation of peripheral blood samples from control patients, followed by staining with anti CD3, anti CD19 and anti CD56 monoclonal antibodies to differentiate between T-, B- and NK cells. Cells were cultured with the indicated concentrations of STF-083010 for 24 h and cell viability was measured by flow cytometric analysis of Annexin V/Propidium Iodide (MM) or 7-aminoactinomycin D (peripheral blood lymphocytes) stained samples.
as §3
(§5) Human specimen isolation and assays. Bone marrow aspirates were obtained from MM patients after obtaining informed consent according to institutional guidelines. […]

CD3 positive T cells = assay: ex vivo cytotoxicity in peripheral blood T cells (7-aminoactinomycin D); assay type: cell-based, human; details: average of UPN 9-15
Experimental: as §4, §3, §5

CD19 positive B cells = assay: ex vivo cytotoxicity in peripheral blood B cells (7-aminoactinomycin D); assay type: cell-based, human; details: average of UPN 9-15
Experimental: as §4, §3, §5

[4] = histology (H&E) of normal mouse tissues after treatment; assay type: in vivo; details: 60 mg/kg×1 and 30 mg/kg×2
Experimental: FIG. 3 is a set of images of the H&E stained sections of normal mouse tissues and RPMI8226 xenograft tumors treated with drug vehicle (16% chremophor in saline) or 30 mg/kg STF-083010 weekly for two weeks.

hIre1α [5] = target: T2, hIre1α; assay: cell free Ire1α RNase (endonuclease) activity, HAC1 mRNA cleavage; assay type: biochemical; details: hIre1 with 32P HAC1 508 nt transcript, 30 min, 1-100 μM; read-out: half-maximal inhibition of HAC1 mRNA processing
Experimental: FIG. 1E is a gel electrophoresis image and a line graph showing the STF-083010 effect on cell free Ire1α RNase (endonuclease) activity. […] HAC1 mRNA cleavage reaction was analyzed by separation of products on denaturing polyacrylamide gels, followed by autoradiography. The line graph is the quantitation of HAC1 mRNA processing showing half-maximal inhibition at approximately 25 μM. Error bars represent s.e.m. of 3 independent experiments.
Chemical library screening. […] Autophosphorylation activity was determined with the addition of ^32P-γATP. Endonuclease activity was determined with the addition of radio-labeled HAC1 508 nt RNA substrate synthesized in vitro using α^32P-UTP (Nock S, Gonzalez T, Sidrauski C, Niwa M, Walter P. Purification and activity assays of the catalytic domains of the kinase/endoribonuclease Ire1p from Saccharomyces cerevisiae. Methods Enzymol. 2001; 342:3-10). […] Kinase activity and RNAse cleavage products were quantitated by PAGE and ^32P-γATP or ^32P-UTP autoradiography respectively.

T2 sequence (O75460 465-977 limits assumed): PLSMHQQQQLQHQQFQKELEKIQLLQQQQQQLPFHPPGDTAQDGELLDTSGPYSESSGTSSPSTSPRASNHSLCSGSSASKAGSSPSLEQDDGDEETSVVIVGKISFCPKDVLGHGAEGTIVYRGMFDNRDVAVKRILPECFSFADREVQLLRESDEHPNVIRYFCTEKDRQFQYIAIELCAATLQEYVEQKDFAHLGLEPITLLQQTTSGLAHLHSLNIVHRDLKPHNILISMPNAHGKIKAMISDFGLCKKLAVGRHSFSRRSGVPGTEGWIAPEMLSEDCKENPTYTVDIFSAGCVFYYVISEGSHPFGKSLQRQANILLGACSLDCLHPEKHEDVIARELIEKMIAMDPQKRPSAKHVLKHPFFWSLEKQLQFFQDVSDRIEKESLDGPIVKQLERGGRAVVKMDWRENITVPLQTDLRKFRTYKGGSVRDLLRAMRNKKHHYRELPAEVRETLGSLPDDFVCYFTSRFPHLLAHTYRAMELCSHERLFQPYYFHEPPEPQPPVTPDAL
T1 sequence (O75460 19-977): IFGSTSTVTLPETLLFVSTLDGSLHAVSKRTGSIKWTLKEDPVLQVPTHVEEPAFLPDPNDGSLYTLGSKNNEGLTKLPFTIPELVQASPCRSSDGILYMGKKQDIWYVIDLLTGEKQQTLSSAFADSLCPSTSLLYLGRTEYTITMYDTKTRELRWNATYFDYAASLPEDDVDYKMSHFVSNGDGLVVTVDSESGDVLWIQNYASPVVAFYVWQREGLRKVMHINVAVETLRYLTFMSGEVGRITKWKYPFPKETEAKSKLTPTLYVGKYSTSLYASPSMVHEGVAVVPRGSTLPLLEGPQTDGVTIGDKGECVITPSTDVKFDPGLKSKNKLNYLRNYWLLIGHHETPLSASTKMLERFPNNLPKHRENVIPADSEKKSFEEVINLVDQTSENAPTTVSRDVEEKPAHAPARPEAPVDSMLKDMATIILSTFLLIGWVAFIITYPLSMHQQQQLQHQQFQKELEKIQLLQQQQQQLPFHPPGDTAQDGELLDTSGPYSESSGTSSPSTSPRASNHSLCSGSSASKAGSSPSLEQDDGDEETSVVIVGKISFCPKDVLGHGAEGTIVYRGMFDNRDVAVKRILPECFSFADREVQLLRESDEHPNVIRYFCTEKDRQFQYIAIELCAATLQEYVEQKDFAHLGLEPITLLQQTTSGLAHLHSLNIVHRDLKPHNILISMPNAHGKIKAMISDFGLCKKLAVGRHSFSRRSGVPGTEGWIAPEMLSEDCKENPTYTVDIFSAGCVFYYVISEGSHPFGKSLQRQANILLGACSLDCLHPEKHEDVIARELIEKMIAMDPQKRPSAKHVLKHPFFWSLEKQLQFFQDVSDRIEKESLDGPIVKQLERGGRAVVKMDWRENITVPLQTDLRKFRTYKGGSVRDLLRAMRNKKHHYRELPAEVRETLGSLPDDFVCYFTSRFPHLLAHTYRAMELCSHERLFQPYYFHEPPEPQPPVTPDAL

With C/C=C(/C)C(=O)O[C@H]1C(C)=C2[C@H]([C@@H]1OC(=O)CCCCCCC)[C@@](C)(OC(C)=O)C[C@H](OC(=O)CCC)[C@@]1(O)[C@H]2OC(=O)[C@@]1(C)O [thapsigargin, reference compound] the “XBP1 splicing on incubation with thapsigargin alone” value (XBP1 mRNA splicing; RPMI8226 cells, 300 μM thapsigargin) was “resulted in XBP1 splicing”.
For O=S(=O)(/N=C/c1c(O)ccc2ccccc12)c1cccs1 [STF-083010, (E)-N-((2-hydroxynaphthalen-1-yl)methylene)thiophene-2-sulfonamide], the “Ire1α kinase activity, immunoblot of autophosphorylated Ire1α” value (Ire1α) was “did not inhibit”, the “XBP1-luciferase bioluminescent signal when injected with bortezomib” value (XBP1-luciferase reporter; 1 mg/kg bortezomib and 60 mg/kg STF-083010, 24 h) was “no increase in bioluminescent signal” and the “production of active sXBP1 protein” value (sXBP1 protein) was “inhibited production of active sXBP1 protein”. The “Ire1α kinase activity during co-incubation” value (hIre1α [1]) was “no significant change”, the “viability of MM cell lines” value [2] was “cytostatic and cytotoxic activity in a dose- and time-dependent manner” and the “growth of tumor xenografts” value (RPMI8226 MM cells) was “significantly inhibited”. The “LD50 24 h in multiple myeloma cells, AVERAGE” value ([3]; average of UPN 1-8) was 27.8 µM, the “cytotoxicity to CD138+ cells compared to B (CD19+), T (CD3+), and NK (CD56+) cells” value ([3]; ex vivo, 24 h) was “selectively cytotoxic” and the “LD50 (24 h) CD56 positive, AVERAGE” value (CD56 positive NK cells) was 71.3 µM. For the same compound, the “LD50 (24 h) CD3 positive, AVERAGE” value (CD3 positive T cells) was 136.6 µM, the “XBP1 mRNA splicing induced by thapsigargin” value (XBP1 mRNA splicing; RPMI8226 cells, 300 μM thapsigargin (Th), 60 μM STF-083010) was “almost completely blocked” and the “XBP1 splicing activated by other types of ER stress” value (XBP1 mRNA splicing; tunicamycin treatment, glucose deprivation or severe hypoxia (data not shown)) was “inhibited XBP1 splicing”. The “LD50 (24 h) CD19 positive, AVERAGE” value (CD19 positive B cells) was 73.1 µM, the “histologic effects after treatment” value [4] was “did not find any histologic effects” and the IC50 (hIre1α [5]) was about 25 µM.
With CC(C)C[C@H](NC(=O)[C@H](Cc1ccccc1)NC(=O)c1cnccn1)B(O)O [bortezomib, reference compound] the “XBP1-luciferase bioluminescent activity after bortezomib alone” value (XBP1-luciferase reporter; 1 mg/kg bortezomib, 24 h) was “commensurate increase”.

Reference: US8993617B2, “Ire1alpha endonuclease specific inhibitor with cytotoxic activity” (The Board of Trustees of the Leland Stanford Junior …, priority 2010, dated 2015)
